According to the supplement of paper PMC10307832:

What was measured:
Test in all cases: relative viability (nuclei count vs DMSO), 5 days (fraction); higher = more cells survive
[1] = compound: COc1cc2c(Oc3ccc4[nH]c(C)cc4c3F)ncnc2cc1OCCCN1CCCC1 [Cediranib] + Cc1cc(Nc2cc(N3CCN(C)CC3)nc(Sc3ccc(NC(=O)C4CC4)cc3)n2)n[nH]1 [Tozasertib] (partner 0.1 µM)
In short: (§1)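 Five library-drug doses in √10 steps were combined with a fixed anchor-drug dose, or a single drug was given alone, by pin tool to lung cancer cell lines in 1536-well plates the day after seeding. Nuclei were stained and counted after 5 days. Relative viability is the nuclei count in treated wells over that in vehicle wells, taken as the median of duplicate plates.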

[2] = compound: Nc1ncn([C@H]2C[C@H](O)[C@@H](CO)O2)c(=O)n1 [Decitabine] + CCNC(=O)c1noc(-c2cc(C(C)C)c(O)cc2O)c1-c1ccc(CN2CCOCC2)cc1 [Luminespib] (partner 0.01 µM)
In short: as §1

[3] = compound: O=C(C[C@H]1NCCC[C@@H]1O)Cn1cnc2cc(Br)c(Cl)cc2c1=O (racemic) [Halofuginone] + CS(=O)(=O)CCNCc1ccc(-c2ccc3ncnc(Nc4ccc(OCc5cccc(F)c5)c(Cl)c4)c3c2)o1 [Lapatinib] (partner 2 µM)
In short: as §1

[4] = compound: O=C(C[C@H]1NCCC[C@@H]1O)Cn1cnc2cc(Br)c(Cl)cc2c1=O (racemic) [Halofuginone] + N=C(N)NC(=N)NCCc1ccccc1 [Phenformin] (partner 250 µM)
In short: as §1

| Cell Line | relative viability ([1]; first compound 0.04 µM) | relative viability ([1]; first compound 0.1265 µM) | relative viability ([1]; first compound 0.4 µM) | relative viability ([1]; first compound 1.265 µM) | relative viability ([1]; first compound 4 µM) | relative viability ([2]; first compound 0.04 µM) | relative viability ([2]; first compound 0.1265 µM) | relative viability ([2]; first compound 0.4 µM) | relative viability ([2]; first compound 1.265 µM) | relative viability ([2]; first compound 4 µM) | relative viability ([3]; first compound 0.001 µM) | relative viability ([3]; first compound 0.003162 µM) | relative viability ([3]; first compound 0.01 µM) | relative viability ([3]; first compound 0.03162 µM) | relative viability ([3]; first compound 0.1 µM) | relative viability ([4]; first compound 0.001 µM) | relative viability ([4]; first compound 0.003162 µM) | relative viability ([4]; first compound 0.01 µM) | relative viability ([4]; first compound 0.03162 µM) | relative viability ([4]; first compound 0.1 µM) |
| --- | --- | --- | --- | --- | --- | --- | --- | --- | --- | --- | --- | --- | --- | --- | --- | --- | --- | --- | --- | --- |
| NCI-H2087 | 0.279 | 0.257 | 0.213 | 0.226 | 0.228 | 0.172 | 0.175 | 0.204 | 0.135 | 0.158 | 1.05 | 1.29 | 1.21 | 0.959 | 1.19 | 0.487 | 0.535 | 0.424 | 0.44 | 0.362 |
| NCI-H2126 | 0.84 | 0.916 | 0.77 | 0.777 | 0.773 | 0.811 | 0.723 | 0.547 | 0.492 | 0.485 | 0.798 | 0.732 | 0.773 | 0.743 | 0.683 | 0.538 | 0.56 | 0.511 | 0.512 | 0.488 |
| NCI-H2170 | 0.846 | 0.659 | 0.735 | 0.677 | 0.787 | 0.645 | 0.641 | 0.488 | 0.286 | 0.253 | 0.279 | 0.296 | 0.259 | 0.291 | 0.249 | 0.412 | 0.416 | 0.411 | 0.392 | 0.434 |
| NCI-H2228 | 0.26 | 0.351 | 0.237 | 0.207 | 0.203 | 0.102 | 0.134 | 0.116 | 0.148 | 0.165 | 1.06 | 1.02 | 0.908 | 0.657 | 0.121 | 0.32 | 0.332 | 0.307 | 0.338 | 0.172 |
| NCI-H2347 | 0.532 | 0.385 | 0.596 | 0.539 | 0.485 | 0.472 | 0.393 | 0.515 | 0.453 | 0.36 | 1 | 0.853 | 0.906 | 0.918 | 0.65 | 0.535 | 0.521 | 0.53 | 0.477 | 0.317 |
| NCI-H2405 | 0.75 | 0.88 | 0.717 | 0.778 | 0.757 | 0.798 | 0.654 | 0.59 | 0.431 | 0.445 | 1.14 | 1.01 | 1.02 | 1.02 | 0.861 | 0.423 | 0.436 | 0.414 | 0.396 | 0.337 |
